Experimental data as given in patent US20200061047A1, “NEW USE OF RIFAMYCIN-QUINOLIZIDONE DUAL-ACTION MOLECULE” (TenNor Therapeutics Limited, priority 2017, published 2020).
In brackets after ≈: the same amount, converted by molar mass. Where two headings read alike, the source gives them in different places.

What was measured:
Format in all cases: cell-based
[1] = system: Bifidobacterium infantis subsp. Infantis ATCC 15702; experiment: MIC, agar dilution drug sensitivity test; settings: ATCC15702, Table 1
[2] = system: Bacteroides bifidum ATCC 1569; experiment: MIC, agar dilution drug sensitivity test; settings: ATCC1569, Table 1
[3] = system: Clostridium difficile ATCC 700057; experiment: MIC, agar dilution drug sensitivity test; settings: Clostridioides difficile, ATCC700057
[4] = system: Clostridium perfringens ATCC 13124; experiment: microbe, parasite or virus in culture; settings: ATCC13124
[5] = system: Eggerthella lenta ATCC 43055; experiment: MIC, agar dilution drug sensitivity test; settings: ATCC43055, Table 1
[6] = system: Fusobacterium necrophorum ATCC 25286; experiment: MIC, agar dilution drug sensitivity test; settings: ATCC25286, Table 1
[7] = system: Peptostreptococcus prevotii ATCC 9321; experiment: MIC, agar dilution drug sensitivity test; settings: Anaerococcus prevotii, ATCC9321, Table 1
[8] = system: Bordetella avium ATCC 6945; experiment: MIC, agar dilution drug sensitivity test
[9] = system: Serratia marcescens ATCC 43862; experiment: MIC, agar dilution drug sensitivity test
[10] = system: Proteus vulgaris ATCC 1331; experiment: MIC, agar dilution drug sensitivity test
[11] = system: Enterobacter aerogenes ATCC 13048; experiment: MIC, agar dilution drug sensitivity test
[12] = system: Haemophilus influenzae ATCC 49247; experiment: MIC, microscale broth dilution drug sensitivity test
Procedure: (§1) In this embodiment, compound I-rifamycin-quinolizidone dual-action molecule is used in a drug sensitivity test on pathogenic bacteria associated with hepatic encephalopathy, the pathogenic bacteria including the above ammonia-producing bacteria. Except that Haemophilus is tested using the microscale broth dilution method, all the other bacteria are tested using the agar dilution method consistent with that in the Guideline of the Clinical and Laboratory Standards Institute (CLSI; 1-3). All the other drug susceptibility tests are performed under anaerobic conditions except that some selective isolates are tested under both aerobic and anaerobic conditions. Control compounds include metronidazole, rifampicin, clindamycin (under anaerobic conditions) and ciprofloxacin (under aerobic and anaerobic conditions). The tested clinical isolates may be reference strains obtained from American Type Culture Collection, ATCC, Manassas, Va. After being received, the strains are respectively inoculated on appropriate agar plates and placed under optimized conditions for growth. The growing strains are cloned in the broth containing cryoprotectant to prepare bacterial suspensions, and the bacterial suspensions are subpackaged and then stored in freezing at −80° C. Before test, the frozen bacteria are inoculated into appropriate agar dishes and cultured for growth. Anaerobic bacteria grow for 48 hours at 35° C. in a Bactron II oxygen-free cabinet (Shel Lab, Cornelius, Oreg.) before test. Haemophilus Test Medium (HTM, Teknova, Hollister, Calif.; Art. No.: 895120) is used to perform drug sensitivity test on Hemophilus using the microscale broth dilution method under aerobic and anaerobic conditions. Preparation and storage of all the above broths are performed in accordance with CLSI (1-3).

[13] = system: Haemophilus parainfluenzae ATCC 49247; experiment: as above; settings: ATCC49247
Procedure: as §1

[14] = system: Streptococcus parasanguinis MMX 5671; experiment: MIC, agar dilution drug sensitivity test
[15] = system: Streptococcus salivarius ATCC 25975; experiment: MIC, agar dilution drug sensitivity test
[16] = system: Streptococcus pneumoniae ATCC 49619; experiment: MIC, agar dilution drug sensitivity test
[17] = system: Actinomyces naeslundii JMI 534283; experiment: MIC, agar dilution drug sensitivity test; settings: JMI534283, Aerobic
[18] = system: Alcaligenes faecalis JMI 940880; experiment: MIC, agar dilution drug sensitivity test; settings: JMI940880, Aerobic
[19] = system: Bacteroides vulgatus JMI 927011; experiment: MIC, agar dilution drug sensitivity test; settings: Phocaeicola vulgatus, JMI927011
[20] = system: Corynebacterium urealyticum JMI 2015_30; experiment: MIC, agar dilution drug sensitivity test; settings: Aerobic
[21] = system: Staphylococcus saprophyticus JMI 2016_703; experiment: MIC, agar dilution drug sensitivity test; settings: Aerobic
[22] = system: Escherichia coli ATCC 25922; experiment: MIC, agar dilution drug sensitivity test; settings: ATCC25922, Table 1
[23] = system: Helicobacter pylori ATCC 700824; experiment: MIC, agar dilution drug sensitivity test; settings: ATCC700824, Table 1
[24] = system: Lactobacillus salivarius JMI 941623; experiment: MIC, agar dilution drug sensitivity test; settings: Ligilactobacillus salivarius, JMI941623, Table 1
[25] = system: Klebsiella oxytoca JMI 933995; experiment: MIC, agar dilution drug sensitivity test; settings: JMI933995, Table 1
[26] = system: Morganella morganii MMX 6123; experiment: MIC, agar dilution drug sensitivity test; settings: MMX6123, Table 1
[27] = system: Proteus mirabilis JMI 933599; experiment: MIC, agar dilution drug sensitivity test; settings: JMI933599, Table 1
[28] = system: Proteus vulgaris MMX 6454; experiment: MIC, agar dilution drug sensitivity test; settings: MMX6454, Table 1
[29] = system: Salmonella spp ATCC 35987; experiment: MIC, agar dilution drug sensitivity test; settings: ATCC35987, Table 1
Procedure: In this embodiment, compound I-rifamycin-quinolizidone dual-action molecule is used in a drug sensitivity test on pathogenic bacteria associated with hepatic encephalopathy, the pathogenic bacteria including the above ammonia-producing bacteria. Except that Haemophilus is tested using the microscale broth dilution method, all the other bacteria are tested using the agar dilution method consistent with that in the Guideline of the Clinical and Laboratory Standards Institute (CLSI; 1-3). All the other drug susceptibility tests are performed under anaerobic conditions except that some selective isolates are tested under both aerobic and anaerobic conditions. Control compounds include metronidazole, rifampicin, clindamycin (under anaerobic conditions) and ciprofloxacin (under aerobic and anaerobic conditions).
The tested clinical isolates may be reference strains obtained from American Type Culture Collection, ATCC, Manassas, Va. After being received, the strains are respectively inoculated on appropriate agar plates and placed under optimized conditions for growth. The growing strains are cloned in the broth containing cryoprotectant to prepare bacterial suspensions, and the bacterial suspensions are subpackaged and then stored in freezing at −80° C. Before test, the frozen bacteria are inoculated into appropriate agar dishes and cultured for growth. Anaerobic bacteria grow for 48 hours at 35° C. in a Bactron II oxygen-free cabinet (Shel Lab, Cornelius, Oreg.) before test. […]
The Minimum Inhibitory Concentration (MIC) is determined using the agar dilution method.
The MIC values of all microorganisms except Haemophilus are determined using the agar dilution method in the CLSI (1-2). […] After culturing, the MIC is determined in accordance with the CLSI guideline (1-2).

[30] = system: Yersinia enterocolitica ATCC 23715; experiment: MIC, agar dilution drug sensitivity test; settings: ATCC23715, Table 1
[31] = ATCC49247, Haemophilus influenzae ATCC 49247, Aerobic
[32] = ATCC49247, Haemophilus influenzae ATCC 49247, Anaerobic

Cc1ncc([N+](=O)[O-])n1CCO [Metronidazole, metronidazole]
MIC [1]: 16 µg/mL (≈ 93.5 µM)
MIC [2]: 8 µg/mL (≈ 46.7 µM)
MIC [3]: 0.5 µg/mL (≈ 2.92 µM)
MIC [4]: 2 µg/mL (≈ 11.7 µM)
MIC [5]: 1 µg/mL (≈ 5.84 µM)
MIC [6]: 0.12 µg/mL (≈ 0.701 µM)
MIC [7]: 256 µg/mL (≈ 1500 µM)
MIC ([8]; Bordetella avium ATCC 6945, Anaerobic): >256 µg/mL
MIC ([8]; Bordetella avium, ATCC6945): > 256 µg/mL
MIC ([9]; Serratia marcescens ATCC 43862, Anaerobic): >256 µg/mL
MIC ([9]; Serratia marcescens, ATCC43862): > 256 µg/mL
MIC ([10]; Proteus vulgaris ATCC 1331, Anaerobic): >256 µg/mL
MIC ([10]; Proteus vulgaris, ATCC1331): > 256 µg/mL
MIC ([11]; Enterobacter aerogenes ATCC 13048, Anaerobic): >256 µg/mL
MIC ([11]; Klebsiella aerogenes, ATCC13048): > 256 µg/mL
MIC [12, 31]: 64 µg/mL (≈ 374 µM)
MIC [12, 32]: 64 µg/mL (≈ 374 µM)
MIC ([13]; Haemophilus parainfluenzae): 128 µg/mL (≈ 748 µM)
MIC ([14]; Streptococcus parasanguinis MMX 5671, Anaerobic): >256 µg/mL
MIC ([14]; Streptococcus parasanguinis, MMX5671): > 256 µg/mL
MIC ([15]; Streptococcus salivarius ATCC 25975, Anaerobic): >256 µg/mL
MIC ([15]; Streptococcus salivarius, ATCC25975): > 256 µg/mL
MIC ([16]; ATCC49619, Streptococcus pneumoniae ATCC 49619, Aerobic): > 256 µg/mL
MIC ([16]; ATCC49619, Streptococcus pneumoniae ATCC 49619, Anaerobic): 128 µg/mL (≈ 748 µM)

CO[C@H]1/C=C/O[C@@]2(C)Oc3c(C)c(O)c4c(O)c(c(/C=N/N5CCN(C)CC5)c(O)c4c3C2=O)NC(=O)/C(C)=C\C=C\[C@H](C)[C@H](O)[C@@H](C)[C@@H](O)[C@@H](C)[C@H](OC(C)=O)[C@@H]1C [Rifampicin, rifampicin]
MIC [17]: < 0.002 µg/mL
MIC [18]: 16 µg/mL (≈ 19.4 µM)
MIC [19]: 0.06 µg/mL (≈ 0.0729 µM)
MIC ([8]; Bordetella avium, ATCC6945, Bordetella avium ATCC 6945, Aerobic, read-out: MIC): 16 µg/mL (≈ 19.4 µM)
MIC ([8]; Bordetella avium, ATCC6945, Bordetella avium ATCC 6945, Anaerobic, read-out: MIC): 64 µg/mL (≈ 77.8 µM)
MIC [20]: 0.004 µg/mL (≈ 0.00486 µM)
MIC ([9]; Serratia marcescens, ATCC43862, Serratia marcescens ATCC 43862, Aerobic, read-out: MIC): 64 µg/mL (≈ 77.8 µM)
MIC ([9]; Serratia marcescens, ATCC43862, Serratia marcescens ATCC 43862, Anaerobic, read-out: MIC): 64 µg/mL (≈ 77.8 µM)
MIC ([10]; Proteus vulgaris, ATCC1331, Proteus vulgaris ATCC 1331, Aerobic, read-out: MIC): 16 µg/mL (≈ 19.4 µM)
MIC ([10]; Proteus vulgaris, ATCC1331, Proteus vulgaris ATCC 1331, Anaerobic, read-out: MIC): 8 µg/mL (≈ 9.72 µM)
MIC ([11]; Klebsiella aerogenes, ATCC13048, Enterobacter aerogenes ATCC 13048, Aerobic, read-out: MIC): 64 µg/mL (≈ 77.8 µM)
MIC ([11]; Klebsiella aerogenes, ATCC13048, Enterobacter aerogenes ATCC 13048, Anaerobic, read-out: MIC): 64 µg/mL (≈ 77.8 µM)
MIC [12, 31]: 0.25 to 1 µg/mL (≈ 0.304 to 1.22 µM)
MIC [12, 32]: 0.25 µg/mL (≈ 0.304 µM)
MIC ([13]; Haemophilus parainfluenzae ATCC 49247, Aerobic, read-out: MIC): 0.5 µg/mL (≈ 0.608 µM)
MIC [21]: 1 µg/mL (≈ 1.22 µM)
MIC ([14]; Streptococcus parasanguinis, MMX5671, Streptococcus parasanguinis MMX 5671, Aerobic, read-out: MIC): 0.03 µg/mL (≈ 0.0365 µM)
MIC ([14]; Streptococcus parasanguinis, MMX5671, Streptococcus parasanguinis MMX 5671, Anaerobic, read-out: MIC): 16 µg/mL (≈ 19.4 µM)
MIC ([15]; Streptococcus salivarius, ATCC25975, Streptococcus salivarius ATCC 25975, Aerobic, read-out: MIC): 0.03 µg/mL (≈ 0.0365 µM)
MIC ([15]; Streptococcus salivarius, ATCC25975, Streptococcus salivarius ATCC 25975, Anaerobic, read-out: MIC): 32 µg/mL (≈ 38.9 µM)
MIC ([16]; ATCC49619, Streptococcus pneumoniae ATCC 49619, Aerobic, read-out: MIC): 0.03 µg/mL (≈ 0.0365 µM)
MIC ([16]; ATCC49619, Streptococcus pneumoniae ATCC 49619, Anaerobic, read-out: MIC): 0.12 µg/mL (≈ 0.146 µM)

CO[C@H]1/C=C/O[C@@]2(C)Oc3c(C)c(O)c4c(O)c(c5c(nc6cc(C)ccn65)c4c3C2=O)NC(=O)/C(C)=C\C=C\[C@H](C)[C@H](O)[C@@H](C)[C@@H](O)[C@@H](C)[C@H](OC(C)=O)[C@@H]1C [Rifaximin, rifaximin]
MIC [1]: 0.25 µg/mL (≈ 0.318 µM)
MIC [2]: 0.5 µg/mL (≈ 0.636 µM)
MIC [3]: 0.004 µg/mL (≈ 0.00509 µM)
MIC [4]: 0.12 µg/mL (≈ 0.153 µM)
MIC [5]: 0.12 µg/mL (≈ 0.153 µM)
MIC [6]: 16 µg/mL (≈ 20.4 µM)
MIC [22]: 8 µg/mL (≈ 10.2 µM)
MIC [23]: 2 µg/mL (≈ 2.54 µM)
MIC [24]: 1 µg/mL (≈ 1.27 µM)
MIC [7]: 0.03 µg/mL (≈ 0.0382 µM)
MIC [25]: 32 µg/mL (≈ 40.7 µM)
MIC [26]: 16 µg/mL (≈ 20.4 µM)
MIC [27]: 8 µg/mL (≈ 10.2 µM)
MIC [28]: 4 µg/mL (≈ 5.09 µM)
MIC [29]: 16 µg/mL (≈ 20.4 µM)
MIC [30]: 8 µg/mL (≈ 10.2 µM)
